Measurements from PubChem BioAssay (NCI).
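Interpolation was linear, between the two tested concentrations surrounding the appropriate level; five concentrations were tested over 48 hours in 96-well plates. TGI: total growth inhibition.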

Experiments:
Test in all cases: inhibition of tumour cell growth, NCI panel, 48 h
HCT-15 colon = system: HCT-15 colon
SK-MEL-28 melanoma = system: SK-MEL-28 melanoma
SK-MEL-5 melanoma = system: SK-MEL-5 melanoma
HCT-116 colon = system: HCT-116 colon
TK-10 renal = system: TK-10 renal
HOP-18 NSCLC = system: HOP-18 NSCLC
SNB-75 CNS = system: SNB-75 CNS
DLD-1 colon = system: DLD-1 colon
UACC-257 melanoma = system: UACC-257 melanoma
DMS 273 small cell lung = system: DMS 273 small cell lung
UACC-62 melanoma = system: UACC-62 melanoma
SN12C renal = system: SN12C renal
LXFL 529 NSCLC = system: LXFL 529 NSCLC
SF-268 CNS = system: SF-268 CNS
SF-539 CNS = system: SF-539 CNS
MALME-3M melanoma = system: MALME-3M melanoma
EKVX NSCLC = system: EKVX NSCLC
OVCAR-4 ovarian = system: OVCAR-4 ovarian
NCI-H522 lung = system: NCI-H522 lung
KM20L2 colon = system: KM20L2 colon
HOP-92 NSCLC = system: HOP-92 NSCLC
A549 NSCLC = system: A549 NSCLC
M19-MEL melanoma = system: M19-MEL melanoma
NCI-H23 lung = system: NCI-H23 lung
UO-31 renal = system: UO-31 renal
SNB-19 CNS = system: SNB-19 CNS
IGROV1 ovarian = system: IGROV1 ovarian
ACHN renal = system: ACHN renal
DMS 114 small cell lung = system: DMS 114 small cell lung
OVCAR-5 ovarian = system: OVCAR-5 ovarian
XF 498 CNS = system: XF 498 CNS
OVCAR-3 ovarian = system: OVCAR-3 ovarian
RPMI-8226 leukemia = system: RPMI-8226 leukemia
SNB-78 CNS = system: SNB-78 CNS
A498 renal = system: A498 renal
HOP-62 NSCLC = system: HOP-62 NSCLC
SF-295 CNS = system: SF-295 CNS
HT29 colon = system: HT29 colon
COLO 205 colon = system: COLO 205 colon
K-562 leukemia = system: K-562 leukemia
SW-620 colon = system: SW-620 colon
OVCAR-8 ovarian = system: OVCAR-8 ovarian
NCI-H226 lung = system: NCI-H226 lung
SK-OV-3 ovarian = system: SK-OV-3 ovarian
U251 CNS = system: U251 CNS
786-0 renal = system: 786-0 renal
M14 melanoma = system: M14 melanoma
HL-60(TB) leukemia = system: HL-60(TB) leukemia
CAKI-1 renal = system: CAKI-1 renal
MOLT-4 leukemia = system: MOLT-4 leukemia
SR leukemia = system: SR leukemia
CCRF-CEM leukemia = system: CCRF-CEM leukemia

Measured: TGI

CC/C(CC(=O)CCC(=O)Nc1ccc(C)c(C)c1)=N\NC(=O)C(N)=O
> 100 µM: all assays above
